From patent US20040121946A9, “Inducing cellular immune responses to her2/neu using peptide and nucleic acid compositions” (priority 2002, published 2004)
Where two headings read alike, the source gives them in different places. Where no end group is shown, it is not given here.

Experiments:
DRB1*1501 (DR2w2β1) = DRB1*1501 (DR2w2β1) (Homo sapiens, UniProt P01903+P01911); experiment: HLA class II peptide binding assay, purified HLA; details: for IC50: Table XXIX, read-out: DR2w2β1 nM; for DR2wB1 binding data: Table XIX, DR supermotif peptides
DRB5*0101 (DR2w2β2) = DRB5*0101 (DR2w2β2) (Homo sapiens, UniProt P01903+Q30154); experiment: HLA class II peptide binding assay, purified HLA; details: for DR2w2B2 binding data: unit not given
DRB1*1302 (DR6w19) = DRB1*1302 (DR6w19) (Homo sapiens, UniProt P01903+P01911, A100E/A169T/K41T/L162R/M171V/P40S/Q125H/Q178H/Q39Y/Q99D/R42S/S66N/T262R/V115G/W38E/Y61H); experiment: HLA class II peptide binding assay, purified HLA; details: for DR6w19 binding data: unit not given
[1] = test system: HLA-DR molecules (DR1, DR4w4, DR7, DRB5*0101, DRB1*1501, DRB1*1101, DRB1*0802, DRB1*1302); experiment: DR supertype cross-reactive binding; design: species or system human; details: for DR147 Binding / DR147 Cross-binding: number of DR1, DR4w4, DR7 bound; for DR147 Binding: Table XXIX; for DR147 Cross-binding: Table XXVIII; for Broad Binding (5/8): number of the 8 DR alleles bound; for No. of DR Alleles Crossbound: Table XXXI
DRB1*0802 (DR8w2) = DRB1*0802 (DR8w2) (Homo sapiens, UniProt P01903+P01911, A100R/A103L/A169T/F76Y/H45Y/I96F/K41T/L162R/M171V/P40S/Q125H/Q178H/Q39Y/Q99D/R218S/R42G/S66Y/V115G/W38E); experiment: HLA class II peptide binding assay, purified HLA; details: for DR8w2 binding data: unit not given
DRB1*0101 (DR1) = DRB1*0101 (DR1) (Homo sapiens, UniProt P01903+P01911, A100R/D57E/F55L/F60I/F76Y/I96L/L162R/M171V/P40L/Q125E/R42F/V115G/Y59C); experiment: HLA class II peptide binding assay, purified HLA; details: unit not given
DRB1*1101 (DR5w11) = DRB1*1101 (DR5w11) (Homo sapiens, UniProt P01903+P01911, A100R/A169T/A87E/I96F/K41T/L162R/M171V/P40S/Q125H/Q178H/Q39Y/Q99D/R42S/S66Y/T262R/V115G/W38E); experiment: HLA class II peptide binding assay, purified HLA; details: for DR5w11 binding data: unit not given
DRB1*0301 (DR3) = DRB1*0301 (DR3) (Homo sapiens, UniProt P01903+P01911, A100K/A102G/A103R/A169T/F55Y/I96L/K41T/L162R/M171V/P40S/Q125H/Q178H/Q39Y/R42S/S66N/T106N/T262R/W38E/Y61H); experiment: HLA class II peptide binding assay, purified HLA; details: unit not given
DRB1*0701 (DR7) = DRB1*0701 (DR7) (Homo sapiens, UniProt P01903+P01911, A100R/A102G/A103Q/D57E/D86V/E43K/F76Y/K127E/L162R/M171V/P40G/Q125H/Q99D/R33Q/R42Y/R54Q/S133A/S66F/T210M/V115G/Y107V/Y59L/Y89S); experiment: HLA class II peptide binding assay, purified HLA; details: Table XIX, DR supermotif peptides; unit not given
DRB1*0401 (DR4w4) = DRB1*0401 (DR4w4) (Homo sapiens, UniProt P01903+P01911, A100K/A169T/F76Y/I96L/K127E/L162R/M171V/N62H/P40V/Q125Y/R42H/S133A/S149N/S66Y/V115G/V209L/W38E); experiment: HLA class II peptide binding assay, purified HLA; details: for DR4w4 binding data: Table XIX, DR supermotif peptides, unit not given
[2] = Table XXIX, read-out: DR2w2β2 nM
[3] = Table XIX, DR supermotif peptides
[4] = Table XXa, DR 3a motif peptides

| Molecule | DR147 Binding [1] | DR147 Cross-binding [1] | Broad Binding (5/8) [1] | DR8w2 binding data (DRB1*0802 (DR8w2); [3]) | DR1 binding data (DRB1*0101 (DR1); [3]) | DR2wB1 binding data (DRB1*1501 (DR2w2β1); unit not given) | DR2w2B2 binding data (DRB5*0101 (DR2w2β2); [3]) | DR5w11 binding data (DRB1*1101 (DR5w11); [3]) | DR6w19 binding data (DRB1*1302 (DR6w19); [3]) | DR3 binding data (DRB1*0301 (DR3); [3]) | DR7 binding data (DRB1*0701 (DR7)) | DR4w4 binding data (DRB1*0401 (DR4w4)) | also measured |
| --- | --- | --- | --- | --- | --- | --- | --- | --- | --- | --- | --- | --- | --- |
| CC[C@H](C)[C@H](NC(=O)CNC(=O)[C@@H](NC(=O)[C@@H](NC(=O)[C@H](C)NC(=O)[C@H](CO)NC(=O)[C@@H](NC(=O)[C@@H](NC(=O)[C@H](CO)NC(=O)[C@@H](NC(=O)[C@H](CC(C)C)NC(=O)[C@@H]1CCCN1C(=O)[C@H](CO)NC(=O)[C@H](C)N)[C@@H](C)O)[C@@H](C)CC)[C@@H](C)CC)C(C)C)C(C)C)C(=O)N[C@@H](CC(C)C)C(=O)O | 2 | 2 | 4 |  |  |  |  |  |  |  |  |  | IC50 (DRB1*1501 (DR2w2β1)): 96 nM; IC50 (DRB5*0101 (DR2w2β2); [2]): 5410 nM; IC50 (DRB1*1302 (DR6w19); Table XXIX, read-out: DR6w19 nM): 73 nM |
| ARLLDIDETEYHADG |  |  |  | −0.0009 | 0.0001 | −0.0006 | −0.0007 | −0.0008 | −0.0001 | 0.3100 |  |  | DR8w2 binding data (DRB1*0802 (DR8w2); [4]): −0.0009; DR1 binding data (DRB1*0101 (DR1); [4]): 0.0001; DR2w2B1 binding data (DRB1*1501 (DR2w2β1); Table XXa, DR 3a motif peptides, unit not given): −0.0006; DR2w2B2 binding data (DRB5*0101 (DR2w2β2); [4]): −0.0007; DR5w11 binding data (DRB1*1101 (DR5w11); [4]): −0.0008; DR6w19 binding data (DRB1*1302 (DR6w19); [4]): −0.0001; DR3 binding data (DRB1*0301 (DR3); [4]): 0.3100; No. of DR Alleles Crossbound [1]: 0 |
| CC[C@H](C)[C@H](NC(=O)[C@H](CCCCN)NC(=O)[C@H](CCCCN)NC(=O)[C@@H](N)CS)C(=O)N[C@@H](Cc1ccccc1)C(=O)NCC(=O)N[C@@H](CO)C(=O)N[C@@H](CC(C)C)C(=O)N[C@@H](C)C(=O)N[C@@H](Cc1ccccc1)C(=O)N[C@@H](CC(C)C)C(=O)N1CCC[C@H]1C(=O)N[C@@H](CCC(=O)O)C(=O)N[C@@H](CO)C(=O)N[C@@H](Cc1ccccc1)C(=O)O | 2 | 2 | 2 | −0.0004 | 0.2400 | 0.0070 | 0.0016 | −0.0005 | 0.0034 | 0.0010 | 0.0270 | −0.0025 | IC50 (DRB1*1501 (DR2w2β1)): 1300 nM |
| CC[C@H](C)[C@H](NC(=O)[C@H](CCSC)NC(=O)[C@H](Cc1c[nH]c2ccccc12)NC(=O)[C@H](CS)NC(=O)[C@H](CCCCN)NC(=O)[C@@H](NC(=O)[C@H](CCSC)NC(=O)[C@@H](NC(=O)[C@H](CCSC)NC(=O)[C@H](Cc1ccc(O)cc1)NC(=O)[C@@H](NC(=O)[C@@H](N)CC(=O)O)C(C)C)[C@@H](C)CC)C(C)C)C(=O)N[C@@H](CC(=O)O)C(=O)N[C@@H](CO)C(=O)N[C@@H](CCC(=O)O)C(=O)O | 3 | 3 | 4 | 0.0450 | 0.0280 | 0.0047 | 0.0042 | 0.0220 | −0.0003 | 0.0010 |  | 0.0570 |  |
| CC[C@H](C)[C@H](NC(=O)CNC(=O)[C@H](CC(C)C)NC(=O)[C@H](CC(C)C)NC(=O)[C@H](CCCNC(=N)N)NC(=O)[C@@H](N)CO)C(=O)N[C@@H](CS)C(=O)N[C@@H](CC(C)C)C(=O)N[C@H](C(=O)N[C@@H](CO)C(=O)N[C@H](C(=O)N[C@H](C(=O)N[C@@H](CCC(N)=O)C(=O)N[C@@H](CC(C)C)C(=O)N[C@H](C(=O)O)C(C)C)C(C)C)[C@@H](C)O)[C@@H](C)O | 3 | 3 | 5 | 0.0009 | 0.3500 | 0.0220 | −0.0007 | 0.0140 | 0.3400 | 0.0062 | 0.5600 | 0.1200 | No. of DR Alleles Crossbound [1]: 5 |
| CC[C@H](C)[C@H](NC(=O)CNC(=O)[C@H](CC(=O)O)NC(=O)[C@H](Cc1ccc(O)cc1)NC(=O)[C@@H]1CCCN1C(=O)[C@H](CCCCN)NC(=O)[C@H](C)NC(=O)CNC(=O)[C@H](Cc1ccccc1)NC(=O)[C@@H](NC(=O)[C@H](CCSC)NC(=O)[C@H](CC(C)C)NC(=O)[C@H](CCC(=O)O)NC(=O)[C@H](Cc1c[nH]c2ccccc12)NC(=O)[C@@H](N)C(C)C)[C@@H](C)O)C(=O)O | 3 | 3 | 5 | 0.0089 | 0.0870 | 0.0990 | 0.1000 | 0.0054 | 0.0004 | 0.0010 | 0.0370 | 0.0550 | IC50 (DRB1*1501 (DR2w2β1)): 92 nM; IC50 (DRB5*0101 (DR2w2β2); [2]): 200 nM; IC50 (DRB1*1101 (DR5w11); Table XXIX, read-out: DR5w11 nM): 3.7 µM; No. of DR Alleles Crossbound [1]: 5 |
| CSCC[C@H](NC(=O)[C@H](CC(C)C)NC(=O)[C@H](CCC(N)=O)NC(=O)[C@@H](NC(=O)[C@@H](NC(=O)[C@H](CC(C)C)NC(=O)[C@H](CCC(N)=O)NC(=O)[C@@H](NC(=O)[C@@H](N)[C@@H](C)O)C(C)C)C(C)C)[C@@H](C)O)C(=O)N1CCC[C@H]1C(=O)N[C@@H](Cc1ccc(O)cc1)C(=O)NCC(=O)N[C@@H](CS)C(=O)N[C@@H](CC(C)C)C(=O)N[C@@H](CC(C)C)C(=O)O | 2 | 2 | 3 | 0.0069 | 0.2300 |  | 0.0009 | −0.0005 | 0.0031 | 0.0010 | 0.0100 | 0.0460 | IC50 (DRB1*0802 (DR8w2); Table XXIX, read-out: DR8w2 nM): 7.1 µM |
| ELELRKVKVLGSGAF |  |  |  | 0.0250 | 0.0160 | 0.0019 | 0.0052 | 0.0061 | 0.0014 | 0.0045 | 0.0380 | 0.0350 |  |
| ASPLTSHSAVVGIL |  |  |  | −0.0004 | 0.0890 | 0.0950 | 0.0037 | −0.0005 | 0.0480 | 0.0010 | 0.0350 | −0.0025 |  |
| CC[C@H](C)[C@H](NC(=O)[C@H](CCSC)NC(=O)[C@H](Cc1c[nH]c2ccccc12)NC(=O)[C@@H](N)CS)C(=O)N[C@@H](CC(=O)O)C(=O)N[C@@H](CO)C(=O)N[C@@H](CCC(=O)O)C(=O)N[C@@H](CS)C(=O)N[C@@H](CCCNC(=N)N)C(=O)N1CCC[C@H]1C(=O)N[C@@H](CCCNC(=N)N)C(=O)N[C@@H](Cc1ccccc1)C(=O)N[C@@H](CCCNC(=N)N)C(=O)N[C@@H](CCC(=O)O)C(=O)N[C@@H](CC(C)C)C(=O)O |  |  |  |  |  |  |  |  |  |  |  |  | IC50 (DRB1*0401 (DR4w4); Table XXXI): > 8.18 µM; IC50 (DRB5*0101 (DR2w2β2); Table XXXI): 1330 nM |
| CC[C@H](C)[C@H](NC(=O)[C@H](CO)NC(=O)[C@H](CCC(=O)O)NC(=O)[C@H](CC(C)C)NC(=O)[C@H](C)NC(=O)[C@H](CCSC)NC(=O)[C@H](Cc1c[nH]c2ccccc12)NC(=O)[C@H](CCCCN)NC(=O)[C@@H](NC(=O)[C@@H]1CCCN1C(=O)[C@@H](NC(=O)[C@@H](N)CCCCN)C(C)C)[C@@H](C)CC)C(=O)N[C@@H](CC(C)C)C(=O)N[C@@H](CCCNC(=N)N)C(=O)N[C@@H](CCCNC(=N)N)C(=O)O |  |  |  |  | 2.2000 | 2.7000 | 2.1000 | 0.0073 | 0.0031 | 0.0620 | 0.0190 | 0.0690 |  |
